Measured values reported in US6676950B2, “Neurokinin receptor antagonists and methods of use thereof for inhibiting HIV infection” (The Children's Hospital of Philadelphia, priority 2001, dated 2004).

What was measured:
[1] = system: HIV LTR promoter; assay: HIV LTR-driven CAT activity assay in U38 cells; format: cell-based
Excerpt: ACH-2 and U38 cell lines (25, 26) were obtained from the NIH AIDS Reagent Program. DNA extracted from ACH-2 cells was used as a positive standard for HIV DNA PCR as previously reported (27). The U38 cell line contains stably integrated, silent copies of the HIV LTR (long terminal repeat) promoter linked to a CAT (chloramphenicol acetyltransferase) gene and was used to study the effect of SP and/or CP-96,345 and R-113281 on the activation of HIV LTR promoter.
Chloramphenicol acetyltransferase (CAT) activity assay: U38 cells (2×10^6 cells) were incubated with different concentrations of SP and/or CP-96,345 or R-113281 for 48 h. Untreated U38 cells were used as a background control. Cellular proteins were extracted using 1X Reporter Lysis Bufffer (Promega Corp., Madison, Wis.). The lysates were incubated with a mixture containing 0.15 μCi of ^14C-labeled chloramphenicol (DuPont Inc., Boston, Mass.) and 200 μg/ml of n-Butyryl CoA (Promega Corp., Madison, Wis.) in a total volume of 125 μl at 37° C. for 3 h. The acetylated forms of chloramphenicol were extracted with xylene (Aldrich Chemical Company, Milwaukee, Wis.). CAT activity of each sample was quantified using a liquid-scintillation counter (Packard Instrument Company, Downers Grove, Ill.). The results were expressed as the ratio of CAT activity (CPM) of the SP and/or CP-96,345-treated or R-113281-treated U38 to that of the background control.

[2] = system: CCR5 mRNA; assay: CCR5 mRNA expression in MDM by RT-PCR / real-time RT-PCR; format: cell-based, human; settings: for relative CCR5 mRNA level (real-time RT-PCR): 4 hours
Experimental: Total RNA was isolated from human peripheral blood MDM (10^6 cells) using Tri-Reagent (Molecular Research Center, Cincinnati, Ohio) as we previously reported (16).
Reverse transcription: Total RNA (1 μg) was reverse transcribed using Reverse Transcription System (Promega, Madison, Wis.) with the specific primers (antisense) for HIV gag (5′-[…]-[…]-3′; SEQ ID NO: 1) (27) or CCR5 (5′-[…]-3′; SEQ ID NO: 2) (32) for 1 h at 42° C. RT reactions was terminated by incubating the reaction mixture at 99° C. for 5 min and then kept at 4° C. The resulting cDNA was used as a template for PCR amplification or real time PCR quantification.
Polymerase chain reaction (PCR) analysis: PCR amplification of CCR5 and HIV gag cDNA was performed with one tenth of the cDNA for 35 cycles (CCR5) (32) or 40 cycles (gag) (27) using AmpliTaq Gold (Perkin ElmerCetus, Foster City, Calif.) in a GeneAmp PCR System 2400 (Perkin Elmer-Cetus). β-Actin was used as a control to monitor the amount and integrity of RNA in each sample (Clontech, Palo Alto, Calif.). Real time PCR was performed with one tenth of cDNA using ABI Prism 7700 Sequence Detection System (Perkin Elmer). The reaction mixture contained 0.25 mM of dNTPs, AmpliTaq Gold (1.5 U), 5 mM of MgCl2, 50 pmole of each of the two primers (SK38: 5′-[…]-3′(SEQ ID NO: 3); SK39: 5′-[…]-3′; SEQ ID NO: 4), 20 pmole of the molecular beacon probe (SK19: 5′[…]-3′; SEQ ID NO: 5) labeled with FAM (a fluorophore) at its 5′ end and DABCYL (a quencher) at the 3′end. The cycle conditions were 95° C. 10 min followed by 40 cycles of 95° C. 15 sec and 60° C. 1 min. The known amounts of HIV DNA isolated from ACH-2 cells were used as standard controls. All standards and samples were run in duplicates. HIV gag, CCR5, β-Actin primer pairs and the probe (SK19) were synthesized by Integrated DNA Technologies, Inc. (Coralville, Ind.).

[3] = system: luciferase-encoding HIV virions pseudotyped with MLV Env (CCR5-independent); assay: Pseudotype reporter virus entry assay, MLV Env; format: cell-based
Experimental: Pseudotype reporter virus entry assay: Recombinant luciferase-encoding HIV virions pseudotyped with Env from the M-tropic ADA (CCR5-dependent) and amphitropic murine leukemia virus (MLV) (CCR5-independent) were used to study HIV infection of MDM incubated with or without CP-96,345 or R-113281. The Env-deleted luciferase reporter plasmid PNL-Luc-E-R+ (kindly provided by N. Landau) was cotransfected into 293T cells along with plasmids encoding the ADA or MLV Env genes as previously described (31). Supernatants were collected 48 h later, assayed for p24^Gag antigen content, and frozen at −80° C. MDM (2.5×10^5 cells/well, in 48-well plates) were incubated overnight with or without CP-96,345 or R-113281 and then infected using 20 ng of p24^Gag antigen equivalent of each pseudotype HIV per well, in the presence of polybrene (7.5 μg/ml). At 72 h postinfection, the cells were lysed in 150 μl of 0.5% Triton-X-100 in PBS. Lysate (50 μl) was mixed with an equal volume of luciferase substrate (Promega, […].) and luciferase activity was determined in a microtiter plate luminometer (Dynex Technologies, Chantilly, Va.). The results were expressed as relative light units (RLU) in CP-96,345-treated or R-113281-treated and infected MDM as a percentage of that in untreated and infected MDM.

## COc1cc(C(=O)N2CCO[C@](CCN3CCC4(CC3)c3ccccc3C[S@+]4[O-])(c3ccc(Cl)c(Cl)c3)C2)cc(OC)c1OC.Cl [R-113281]
[1]; SP (10^−8M) plus R-113281 (10^−6M), 48 hours
  effect on SP activation of HIV LTR-driven CAT activity: abrogated
[2]; R-113281 10^−8 M to 10^−6 M
  relative CCR5 mRNA level (real-time RT-PCR): significantly down-regulated
[3]; R-113281 10^−7 and 10^−6 overnight pretreatment
  MLV-Env pseudotyped HIV infection of MDM (luciferase activity): failed to block

## COc1ccccc1CN[C@H]1C2CCN(CC2)[C@H]1C(c1ccccc1)c1ccccc1 [CP-96,345, [2S,3S)-cis-2-(diphenylmethyl)-N-[(2-methoxyphenyl)-methyl]-1-azabicyclo [[2.2.2]-octan-3-amine]]
[1]; SP 10^−8M plus CP-96,345 10^−6M, 48 h
  effect on SP activation of HIV LTR-driven CAT activity: abrogated
[2]; 10^−8 to 10^−6M, 3 h
  CCR5 mRNA in MDM (RT-PCR): down-regulated
[2]; CP-96,345 10^−7 M to 10^−6 M
  relative CCR5 mRNA level (real-time RT-PCR): significantly down-regulated
[3]; CP-96,345 10^−8 and 10^−7 M overnight pretreatment
  MLV Env-pseudotyped HIV infection of MDM (luciferase activity): failed to block
